From US7307089B2, “Aryloxy quinolines and uses thereof” (Roche Palo Alto LLC, priority 2005, dated 2007)
Structures can show the parent of a compound that is named as a salt.

Experiments:
[1] = molecular target: T1, recombinant human 5-HT6 receptor (Homo sapiens, UniProt P50406); test: Radioligand binding studies: competition for [3H]LSD binding in HEK293 cell membranes; conditions: [3H]LSD (5 nM) displacement, membranes of HEK293 cells stably expressing the receptor, 60 min at 37° C., pH 7.4
T1 construct: expressed in transfected cells; membranes used
T1 sequence (P50406 whole entry): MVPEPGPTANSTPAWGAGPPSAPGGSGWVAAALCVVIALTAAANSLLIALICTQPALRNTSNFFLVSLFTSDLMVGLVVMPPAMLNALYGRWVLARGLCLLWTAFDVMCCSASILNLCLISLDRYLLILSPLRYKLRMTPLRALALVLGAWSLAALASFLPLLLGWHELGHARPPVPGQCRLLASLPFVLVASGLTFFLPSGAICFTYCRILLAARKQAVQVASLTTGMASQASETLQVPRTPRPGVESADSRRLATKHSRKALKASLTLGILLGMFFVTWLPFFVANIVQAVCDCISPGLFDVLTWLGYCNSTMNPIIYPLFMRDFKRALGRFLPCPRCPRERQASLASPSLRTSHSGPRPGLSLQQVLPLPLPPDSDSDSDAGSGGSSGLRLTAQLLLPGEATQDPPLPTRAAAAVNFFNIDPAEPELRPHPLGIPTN
Description: Radioligand Binding Studies
This example illustrates in vitro radioligand binding studies of compound of formula I.
The binding activity of compounds of this invention in vitro was determined as follows. Duplicate determinations of ligand affinity are made by competing for binding of [^3H]LSD in cell membranes derived from HEK293 cells stably expressing recombinant human 5-HT6 receptor. This cell line was prepared by the method described by Monsma et al., Molecular Pharmacology, Vol. 43 pp. 320-327 (1993).
All determinations were made in assay buffer containing 50 mM Tris-HCl, 10 mM MgSO4, 0.5 mM EDTA, 1 mM ascorbic acid, pH 7.4 at 37° C., in a 250 microliter reaction volume. Assay tubes containing [^3H] LSD (5 nM), competing ligand, and membrane were incubated in a shaking water bath for 60 min. at 37° C., filtered onto Packard GF-B plates (pre-soaked with 0.3% PEI) using a Packard 96 well cell harvester and washed 3 times in ice cold 50 mM Tris-HCl. Bound [^3H] LSD was determined as radioactive counts per minute using Packard TopCount.
Displacement of [3H]LSD from the binding sites was quantified by fitting concentration-binding data to a 4-parameter logistic equation:
[formula] where Hill is the Hill slope, [ligand] is the concentration of competing radioligand and IC50 is the concentration of radioligand producing half-maximal specific binding of radioligand. […]

Row | Structure (SMILES) | melting point | Ki [1] [nM]
1 | COc1cccc(Oc2c(C)cnc3c(N4CCNCC4)cccc23)c1 (as salt: hydrochloride) [Compound 2, 4-(3-Methoxy-phenoxy)-3-methyl-8-piperazin-1-yl-quinoline] | 254 to 255 °C (dec.) | 
2 | Cc1cnc2c(N3CCNCC3)cccc2c1Oc1ccccc1 (as salt: TFA) | 143 to 144 °C | 
3 | COc1cc(N2CCNCC2)c2ncc(C)c(Oc3ccccc3)c2c1 [Compound 10, 6-Methoxy-3-methyl-4-phenoxy-8-piperazin-1-yl-quinoline] |  | ~1
